From patent EP3666770A1, “NOVEL HETEROCYCLIC COMPOUNDS AS CDK8/19 INHIBITORS” (Joint Stock Company "Biocad", priority 2017, dated 2019)
Where two headings read alike, the source gives them in different places.

Legend:
[1] = Enzyme stability in human liver S9 fractions; type: in vitro ADME; details: 0,5 mg/mL pooled human liver S9 fractions, 10 µM compound, 37°C, pH=7,4; for microsomal CLint at 10 µM: pH 7.4
Description: Measuring of candidates' enzyme stability enabled estimation of the stability of the present compounds towards the action of enzymes in human liver S9 fractions.
Enzyme degradation rate was measured by incubating the reaction mixture in a dry block thermostat at 37°C, said reaction mixture comprising 0,5 mg/mL of pooled human liver S9 fractions (XenoTech, USA, cat#H0610), 10 µM compound, 2 mM β-nicotinamide adenine dinucleotide (Carbosynth, UK, cat#NN10871) and 4 mM magnesium chloride in 0,1 M sodium-phosphate buffer, pH=7,4. The reaction was quenched with acetonitrile (100 µL of acetonitrile / 100 µL of the reaction mixture). After quenching, the samples were centrifuged at 10000 rpm for 10 minutes. Supernatant fluid was tested by chromatographic technique using Agilent1200 (Agilent, USA). Chromatographic analysis was performed in a gradient elution regime with a flow rate of 1 mL/min. A graph of the logarithm of substance's peak area as a function of time was made.

[2] = system: MV4-11; assay: Cell-based antiproliferative test (AlamarBlue), MV4-11; details: 120 h incubation, average values of several tests, read-out: MV-4-11 IC50, mkM
[3] = General cytotoxicity test on HepG2 cells; type: cell-based; details: human, HepG2 cells; 72 h incubation; 200 to 0.78 µM; average values of several tests; read-out: Hep-G2 CC50, mkM
Description: Cell viability was assessed using the above method. Table 6. […] The results are presented as average values of activity obtained in several tests.

[4] = Permeability through Caco-2 cell monolayer; type: in vitro ADME; details: human, Caco-2; for Papp A→B at 2 h, 10 µM: A->B transfer, pH 6.5 -> pH 7.4, 2 hours at 37 °C; for efflux ratio at 2 h, 10 µM: efflux = Papp B-A / Papp A-B
Procedure, shortened: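 Caco-2 monolayers grown for 21 days (Lucifer Yellow integrity check) received 10 µM compound apically at pH 6.5 (A→B) or basolaterally at pH 7.4 with 1% BSA on the basolateral side (B→A). After 2 h at 37 °C, both chambers were quantified by HPLC. Efflux ratio = Papp B→A / Papp A→B.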

[5] = Chemical stability in simulated gastric fluid (SGF); type: physicochemical; details: SGF without enzymes, pH=1,4; 10 µm; 2 hours at 37°C; substance amount in % after thermostatting
Procedure, shortened: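 Compounds at […] (diluted from DMSO stock) were incubated for 2 h at 37 °C in enzyme-free simulated gastric fluid, pH=1,4. HPLC peak areas before and after incubation gave the % of compound remaining.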

[6] = Chemical stability in human blood plasma; type: in vitro ADME; details: pooled human blood plasma; 10 µM; 4 hours at 37°C; substance amount in % after thermostatting
Procedure, shortened: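 Pooled plasma from ten healthy human donors; compound diluted from 10 mM DMSO stock to 10 µm final and incubated 4 h at 37°C. After acetonitrile protein precipitation, HPLC peak areas before and after incubation were compared; value is % compound remaining.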

[7] = Enzyme stability in human liver microsomes; type: in vitro ADME; details: pH 7.4; 0,5 mg/mL pooled human liver microsomes; 10 µM compound; 37°C; pH=7,4
Procedure, shortened: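 Pooled human liver microsomes (0,5 mg/mL) incubated at 37 °C with 10 µM compound, 2 mM β-NAD and 4 mM MgCl2 in 0,1 M sodium phosphate, pH 7,4. Samples quenched with acetonitrile and analysed by HPLC. Elimination rate constant taken from the slope of log peak area versus time, giving t1/2 and CLint.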

[8] = system: KG-1; assay: Cell-based antiproliferative test (AlamarBlue), KG-1; details: 120 h incubation, average values of several tests, read-out: KG-1 IC50, mkM
Description: (§1) Antiproliferative activity of CDK8 inhibitors according to the present invention was measured in a cell-based test on continuous cell cultures MV4-11 (biphenotypic myelomonocytic leukemia, ATCC® CRL-9591™), KG-1 (acute myeloid leukemia, ATCC® CCL-246™), HL-60 (acute promyelocytic leukemia, ATCC® CCL-240™) using a vital stain AlamarBlue (ThermoFisher, #DAL1100). The cells were grown in RPMI-1640 (PanEco, #C330p) medium with addition of 10% FBS (Gibco, #16140-071); washed and resuspended in culture medium with 10% FBS (Gibco, #16140-071) in 96-well culture plates (Corning, #3599) with ≈ 10 ×10^3 cells in […] of medium per well. The compounds in question were dissolved in DMSO and diluted with a medium with 10% FBS (Gibco, #16140-071) to a final concentration ranging form 0 to 100 µM. […] of diluted compounds were then added to each well (final DMSO concentration was less than 1%) and incubated under 5% CO2 atmosphere at 37°C for 120 h. After incubating, 15 µL of AlamarBlue (ThermoFisher, #DAL1100) reagent was added per well, contents of plates were mixed in an orbital shaker (Biosan, Latvia) and further incubated for 3-5 h at 37°C under 5% CO2 atmosphere. Number of living cells was estimated using a microplate spectrophotometer (Tecan Infinite M200Pro, Switzerland) measuring fluorescent signal at the excitation wavelength (λEx) of 540 nm and emission wavelength (λEm) of 590 nm.
(§2) IC50 was calculated using Magellan 7.2 software (Tecan, Switzerland) approximating experimental points by four-parameter logistic model with the optimization by Levenberg-Marquardt (table 7, table 7).

[9] = system: HL-60; assay: Cell-based antiproliferative test (AlamarBlue), HL-60; details: Homo sapiens, HL-60, 120 h, 120 h incubation; average values of several tests; read-out: HL-60 IC50, mkM
Description: as §1, §2

SMILES: CCN(CC)C(=O)c1cnc2cncc(-c3ccc(-c4cnn(C)c4)cc3)c2c1 [CDK8-3-23, N,N-Diethyl-5-(4-(1-methyl-1H-pyrazol-4-yl)phenyl)-1,7-naphthyridine-3-carboxamide]
- microsomal CLint at 10 µM [1]: 9.2 µL/min/mg
- IC50 ([2]; Homo sapiens, MV4-11, 120 h): 413 nM
- CC50 at 72 h [3]: > 100000 nM

SMILES: CN(C)C(=O)c1cnc2cncc(-c3ccc(-c4cnn(C)c4)cc3)c2c1 [CDK8-3-22, N,N-Methyl-5-(4-(1-methyl-1H-pyrazol-4-yl)phenyl)-1,7-naphthyridine-3-carboxamide]
- microsomal CLint at 10 µM [1]: 3 µL/min/mg
- IC50 ([2]; Homo sapiens, MV4-11, 120 h): 432 nM
- CC50 at 72 h [3]: > 100000 nM

SMILES: CO[C@@H]1CCN(C(=O)c2cnc3cncc(-c4ccc(-c5cnn(C)c5)cc4)c3c2)C1 [CDK8-3-19, (R)-(3-Methoxypyrrolidin-1-yl)(5-(4-(1-methyl-1H-pyrazol-4-yl)phenyl)-1,7-naphthyridin-3-yl)methanone]
- microsomal CLint at 10 µM [1]: 2.9 µL/min/mg
- IC50 ([2]; Homo sapiens, MV4-11, 120 h): 912 nM
- CC50 at 72 h [3]: > 100000 nM

SMILES: COCCN(C)C(=O)c1cnc2cncc(-c3ccc(-c4cnn(C)c4)cc3)c2c1 [CDK8-3-25, N-(2-Methoxyethyl)-N-methyl-5-(4-(1-methyl-1H-pyrazol-4-yl)phenyl)-1,7-naphthyridine-3-carboxamide]
- microsomal CLint at 10 µM [1]: 3.3 µL/min/mg
- Papp A→B at 2 h, 10 µM [4]: 29.3 ×10⁻⁶ cm/s
- efflux ratio at 2 h, 10 µM [4]: 0.6
- IC50 ([2]; Homo sapiens, MV4-11, 120 h): 134 nM
- CC50 at 72 h [3]: > 100000 nM

SMILES: COCCNC(=O)c1cnc2cncc(-c3ccc(-c4cnn(C)c4)cc3)c2c1 [CDK8-3-18, N-(2-Methoxyethyl)-5-(4-(1-methyl-1H-pyrazol-4-yl)phenyl)-1,7-naphthyridine-3-carboxamide]
- Stability in SGF, % [5]: 100%
- Stability in blood plasma, % [6]: 100%
- microsomal CLint at 10 µM [7]: 10.4 µL/min/mg
- Papp A→B at 2 h, 10 µM [4]: 46.9 ×10⁻⁶ cm/s
- efflux ratio at 2 h, 10 µM [4]: 0.9
- IC50 ([2]; Homo sapiens, MV4-11, 120 h): 190 nM
- CC50 at 72 h [3]: > 200000 nM
- IC50 ([8]; Homo sapiens, KG-1): 80 nM
- IC50 [9]: 35000 nM

SMILES: Cn1cc(-c2ccc(-c3cncc4ncc(C(=O)N5CCC5)cc34)cc2)cn1 [CDK8-3-14, Azetidin-1-yl-(5-(4-(1-methyl-1H-pyrazol-4-yl)phenyl)-1,7-naphthyridin-3-yl) methanone]
- Stability in SGF, % [5]: 100%
- Stability in blood plasma, % [6]: 100%
- microsomal CLint at 10 µM [7]: 13.6 µL/min/mg
- Papp A→B at 2 h, 10 µM [4]: 39.8 ×10⁻⁶ cm/s
- efflux ratio at 2 h, 10 µM [4]: 1.35
- IC50 ([2]; Homo sapiens, MV4-11, 120 h): 200 nM
- CC50 at 72 h [3]: > 100000 nM
- IC50 ([8]; Homo sapiens, KG-1): 50 nM
- IC50 [9]: 69800 nM

SMILES: Cn1cc(-c2ccc(-c3cnc(N)c4ncc(C(=O)N5CCOCC5)cc34)cc2)cn1 [CDK8-3-27, (8-Amino-5-(4-(1-methyl-1H-pyrazol-4-yl)phenyl)-1,7-naphthyridin-3-yl) (morpholino)methanone]
- Stability in blood plasma, % [6]: 94.2%
- microsomal CLint at 10 µM [1]: 1.55 µL/min/mg
- Papp A→B at 2 h, 10 µM [4]: 22.6 ×10⁻⁶ cm/s
- efflux ratio at 2 h, 10 µM [4]: 0.9
- IC50 ([2]; Homo sapiens, MV4-11, 120 h): 66 nM
- CC50 at 72 h [3]: 19400 nM

SMILES: CO[C@@H]1CCCN(C(=O)c2cnc3cncc(-c4ccc(-c5cnn(C)c5)cc4)c3c2)C1 [CDK8-3-21, (R)-(3-Methoxypiperidin-1-yl)(5-(4-(1-methyl-1H-pyrazol-4-yl)phenyl)-1,7-naphthyridin-3-yl)methanone]
- microsomal CLint at 10 µM [1]: 12.9 µL/min/mg
- IC50 ([2]; Homo sapiens, MV4-11, 120 h): 764 nM
- CC50 at 72 h [3]: > 100000 nM

SMILES: COCCNC(=O)c1cnc2c(N)ncc(-c3ccc(-c4cnn(C)c4)cc3)c2c1 [CDK8-3-24, 8-Amino-N-(2-methoxyethyl)-5-(4-(1-methyl-1H-pyrazol-4-yl)phenyl)-1,7-naphthyridine-3-carboxamide]
- Stability in blood plasma, % [6]: 89.7%
- microsomal CLint at 10 µM [1]: 4.6 µL/min/mg
- Papp A→B at 2 h, 10 µM [4]: 17 ×10⁻⁶ cm/s
- efflux ratio at 2 h, 10 µM [4]: 1.1
- IC50 ([2]; Homo sapiens, MV4-11, 120 h): 99 nM
- CC50 at 72 h [3]: > 200000 nM

SMILES: O=C(c1ccc2ncn(-c3ccc(-c4cn[nH]c4)cc3)c2c1)N1CCCCC1 [CDK8-1-3, (1-(4-(1H-Pyrazol-4-yl)phenyl)-1H-benzo[d]imidazol-6-yl)(piperidin-1-yl) methanone]
- Stability in SGF, % [5]: 100%
- Stability in blood plasma, % [6]: 97.7%
- microsomal CLint at 10 µM [7]: 24.8 µL/min/mg
- Papp A→B at 2 h, 10 µM [4]: 64.1 ×10⁻⁶ cm/s
- efflux ratio at 2 h, 10 µM [4]: 0.44
- IC50 ([2]; Homo sapiens, MV4-11, 120 h): 2080 nM
- CC50 at 72 h [3]: 59100 nM
- IC50 ([8]; Homo sapiens, KG-1): 27600 nM
- IC50 [9]: 81400 nM

SMILES: COCCNC(=O)c1ccc2nccc(-c3ccc(-c4cnn(C)c4)cc3)c2c1 [CDK8-6-14, N-(2-Methoxyethyl)-4-(4-(1-methyl-1H-pyrazol-4-yl)phenyl)quinoline-6-carboxamide]
- Stability in SGF, % [5]: 100%
- Stability in blood plasma, % [6]: 100%
- microsomal CLint at 10 µM [7]: 11.8 µL/min/mg
- Papp A→B at 2 h, 10 µM [4]: 64.1 ×10⁻⁶ cm/s
- efflux ratio at 2 h, 10 µM [4]: 0.44
- IC50 ([2]; Homo sapiens, MV4-11, 120 h): 11700 nM
- CC50 at 72 h [3]: > 50000 nM
- IC50 ([8]; Homo sapiens, KG-1): 9600 nM
- IC50 [9]: 66400 nM

SMILES: Cn1cc(-c2ccc(-c3cnc(N)c4ncc(C(=O)NCC5CC5)cc34)cc2)cn1 [CDK8-3-40, 8-Amino-N-(cyclopropylmethyl)-5-(4-(1-methyl-1H-pyrazol-4-yl)phenyl)-1,7-naphthyridine-3-carboxamide]
- microsomal CLint at 10 µM [1]: 2.95 µL/min/mg
- IC50 ([2]; Homo sapiens, MV4-11, 120 h): 9 nM
- CC50 at 72 h [3]: 200000 nM

SMILES: Cn1cc(-c2ccc(-c3cncc4ncc(C(=O)NCC5CC5)cc34)cc2)cn1 [CDK8-3-39]
- Stability in S9, Clint [1]: 10.3 µL/min/mg
- IC50 [2]: 55 nM
- IC50 [8]: 5 nM
